Patent publication US20140186329A1, “POLYPHENOL ANALOGS TO TREAT ISCHEMIA” (priority 2011, published 2014)
Like-named read-outs stand apart in the source and are kept apart here.

Experiments:
[1] = test system: HT22 cells; assay: In vitro ischemia assay (HT22 cell IAA assay, MTT); type: cell-based, mouse; settings: for Emax: HT-22, HT22 Cell IAA assay, read-out: Max Protection; for fold improvement of neuroprotective activity/potency relative to Fisetin: in vitro ischemia, HT22/IAA
Protocol: Cell viability was determined by a modified version of 3-(4,5-dimethylthiazol-2-yl)-2,5-diphenyl tetrazolium bromide (MTT) assay based on the standard procedure (Maher, et al., Brain Research. (2007), supra). Cells were seeded onto 96-well microtiter plates at a density of 5×10^3 cells per well. For the in vitro ischemia assay, the next day, the medium was replaced with DMEM supplemented with 7.5% DFCS and the cells were treated with 20 μM iodoacetic acid (IAA) alone or in the presence of the different derivatives. After 2 hr the medium in each well was aspirated and replaced with fresh medium without IAA but containing the derivatives. 20 hr later, the medium in each well was aspirated and replaced with fresh medium containing 2.5 μg/ml MTT. After 4 hr of incubation at 37° C., the cells were solubilized with 100 μl of a solution containing 50% dimethylformamide and 20% SDS (pH 4.7). The absorbance at 570 nm was measured on the following day with a microplate reader (Molecular Devices). Results were confirmed by visual inspection of the wells. Controls included compound alone to test for toxicity and compound with no cells to test for interference with the assay chemistry.
For a primary screen, an in vitro ischemia model in combination with the HT22 nerve cell line (Maher, et al., Brain Research. (2007) 1173, 117-125) was chosen. […] To induce ischemia in the HT22 cells we used iodoacetic acid (IAA), a well-known, irreversible inhibitor of the glycolytic enzyme glyceraldehyde 3-phosphate dehydrogenase (G3PDH) (Winkler, et al., Exp. Eye Res. (2003) 76, 715-723). IAA has been used in a number of other studies to induce ischemia in nerve cells (Reshef, et al., Neurosci. Lett. (1997) 238, 37-40; Sperling, et al., Neursci. Lett. (2003) 351, 137-140; Rego, et al., Neurochem. Res. (1999) 24, 351-358; Sigalov, et al., J. Mol. Neurosci. (2000) 15, 147-154; and Reiner, et al., Neurosci. Lett. (1990) 119, 175-178), including several recent screens for neuroprotective molecules (Biraboneye, et al., J. Med. Chem. (2009) 52 (14), 4358-4369; Biraboneye, et al., Chem. Med. Chem. (2010) 5 (1), 79-85). The changes following IAA treatment of neural cells are very similar to those seen in animal models of ischemic stroke (Lipton, et al., Physiol. Rev. (1999) 79, 1431-1568) and include alterations in membrane potential (Reiner, et al., Neurosci. Lett. (1990) 119, 175-178), breakdown of phospholipids (Taylor, et al., J. Pharmacol. Exp. Ther. (1996) 276, 1224-1231), loss of ATP (Winkler, et al., Exp. Eye Res. (2003) 76, 715-723; Sperling, et al., Neursci. Lett. (2003) 351, 137-140) and an increase in reactive oxygen species (ROS) (Taylor, et al., J. Pharmacol. Exp. Ther. (1996), supra; and Sperling, et al., Neursci. Lett. (2003) 351, 137-140).
(§1) Cell viability was determined after 24 hr by the MTT assay. The ability to maintain GSH (GSH) was determined by treating HT22 cells with different doses of each derivative (1-10 μM) in the presence of 5 mM glutamate. After 24 hr cell extracts were prepared and analyzed for total GSH. Fisetin (10 μM) was used as a positive control. The ability to induce PC12 cell differentiation (PC 12 diff' n) was determined by treating PC12 cells in N2 medium with different doses of each derivative (1-10 μM) for 24 hr. Differentiation was assessed by visual inspection with Fisetin (10 μM) as a positive control. Anti-inflammatory activity (microglia) was assessed in N9 microglial cells treated with bacterial lipopolysaccharide alone or in the presence different doses of each derivative (1-10 μM) for 24 hr. Fisetin was used as a positive control. TEAC values, a measure of direct antioxidant activity, were determined using the ABTS decolorization assay.
For rapid screening of chemical libraries, a mouse HT22 hippocampal cell death assay induced by addition of the compound iodoacetic acid (IAA) was used. IAA is a well-known, irreversible inhibitor of the glycolytic enzyme glyceraldehyde 3-phosphate dehydrogenase (G3PDH). […]

[2] = test system: HT22 cells; assay: Maintenance of total GSH in the presence of glutamate; type: cell-based, mouse; settings: derivative 1-10 μM, 5 mM glutamate, 24 hr
Protocol: Total intracellular glutathione was determined by a chemical assay as described (Maher, P. et al., Free Radical Research. (2006) 40 (10), 1105-1111).
(§2) Three secondary screens allowed assessment of three key activities of Fisetin that are highly relevant to stroke, as well as other neurological disorders: maintenance of glutathione (GSH), the major endogenous cellular antioxidant, inhibition of LPS-induced microglial activation, an indicator of anti-inflammatory activity and PC 12 cell differentiation, a measure of neurotrophic activity. All of these activities are relevant to the nerve cell loss seen in stroke (Gelderblom, et al., Stroke. 2009, 40 (5), 1849-1857; Pandya, et al., Cent. Nerv. Syst. Agents. Med. Chem. (2011) April 27; Lewerenz, et al., J. Neurochem. (2010) 113 (2), 502-504). […] To assess GSH maintenance, total intracellular GSH levels after a 24 hr treatment with the compound both in the absence and presence of glutamate, an inducer of GSH loss and oxidative stress (Tan, et al., Curr. Top. Med. Chem. (2001) 1, 497-506; Maher, et al., Free Radical Research. (2006) 40 (10), 1105-1111) was measured. Inhibition of LPS-induced microglial activation was determined by treating N9 mouse microglial cells with LPS alone and in the presence of the compounds and assaying NO release into the medium 24 hr later (Zheng, et al., Int. Immunopharmacol. (2008) 8, (3), 484-494). PC12 cell differentiation was determined by treating PC12 cells with the compounds and looking at neurite outgrowth after 24 hr. In all cases, Fisetin was used as a positive control (Sagara, et al., J. Neurochem. (2004) 90, 1144-1155).
as §1

[3] = test system: PC12 cells; assay: PC12 cell differentiation (neurite outgrowth); type: cell-based; settings: N2 medium, derivative 1-10 μM, 24 hr, visual inspection
Protocol: PC 12 cells in N2 medium were treated with the derivatives (1-10 μM) or Fisetin (10 μM) as a positive control for 24 hr at which time the cells were scored for the presence of neurites. PC12 cells produce neurites much more rapidly when treated in N2 medium than when treated in regular growth medium. For each treatment, 100 cells in each of three separate fields were counted. Cells were scored positive if one or more neurites>1 cell body diameter in length were observed.
as §2, §1

[4] = TEAC, ABTS decolorization assay; settings: relative to Trolox
Protocol: TEAC values for the flavonoids were determined as described (Maher, P. et al., Free Radical Research. (2006), supra). Briefly, 250 μl of 2,2′-azinobis(3-ethylbenzothiazoline 6-sulfonate) (ABTS) treated overnight with potassium persulfate and diluted to an OD of ˜0.7 at 734 nm was added to 2.5 μl of a derivative solution in ethanol. The change in absorbance due to the reduction of the ABTS radical cation was measured at 734 nm for 4 min. To calculate the TEAC, the gradient of the plot of the percentage inhibition of absorbance vs. concentration for the derivative in question was divided by the gradient of the plot for Trolox.
as §1

[5] = HT22 cells, 20 μM IAA, read-out: HT22 Cell IAA assay EC50
[6] = Mus musculus, HT-22, HT22 cells, 20 μM IAA for 2 hr, viability after 24 hr by MTT, read-out: EC50 in vitro ischemia
[7] = Mus musculus, HT-22, HT22 cells, 20 μM IAA, read-out: HT22 Cell IAA assay EC50

SMILES | EC50 [1, 5] | EC50 [1, 6] | EC50 [1, 7] | GSH (ability to maintain GSH) [2] | PC12 diff'n (ability to induce PC12 cell differentiation) [3] | TEAC [4] | Emax ([1]; Mus musculus) | fold improvement of neuroprotective activity/potency relative to Fisetin [1]
COc1cc(-c2cc(=O)c3cc(C)c(C)cc3o2)ccc1O [CMS-064, 2-(4-hydroxy-3-methoxyphenyl)-6,7-dimethyl-4H-chromen-4-one] | 34 nM | 30 nM | < 40 nM | no | no | 0.12 |  | 
COc1cc(-c2ccc(N(C)C)cc2)nc2ccccc12 [CMS-109, 4-methoxy-2-(4-dimethylaminophenyl)quinoline] |  | 60 nM |  | no | no | 0.06 |  | 
COc1cc(-c2oc3c(ccc4ccccc43)c(=O)c2O)ccc1OCc1ccccc1 [CMS-065, 2-(4-(benzyloxy)-3-methoxyphenyl)-3-hydroxy-4H-benzo[h]chromen-4-one] |  | 80 nM | 81 nM | no | yes | 0 |  | 
Cc1cc2oc(-c3ccc(N(C)C)cc3)cc(=O)c2cc1C [CMS-119, 2-(4-(dimethylamino)phenyl)-6,7-dimethyl-4H-chromen-4-one] |  | > 500 nM |  | no | no | 0 |  | 
Cc1cc2oc(-c3ccc(N4CCCC4)cc3)cc(=O)c2cc1C [CMS-116, 6,7-dimethyl-2-(4-(pyrrolidin-1-yl)phenyl)-4H-chromen-4-one] |  | > 500 nM |  | no | no | 0.12 |  | 
Cc1cc2oc(-c3ccc(O)cc3O)cc(=O)c2cc1C [CMS-094, 2-(2,4-dihydroxyphenyl)-6,7-dimethyl-4H-chromen-4-one] |  | > 500 nM |  | no | no | 0.15 |  | 
O=c1c(O)c(-c2ccc(O)c(O)c2)oc2ccc3ccccc3c12 [CMS-041, 3-(3,4-dihydroxyphenyl)-2-hydroxy-1H-benzo[h]chromen-1-one] |  | 250 nM |  | no | yes | 1.26 |  | 
COc1cc(-c2ccccc2)nc2ccccc12 [CMS-021, 4-methoxy-2-phenylquinoline] |  | 750 nM |  | no | no | 0.12 |  | 
O=C1/C(=C/c2ccc(O)c(O)c2)Oc2cc(O)ccc21 [PM-014] |  |  | 49 nM |  |  |  |  | 
O=c1cc(-c2ccc(O)c(O)c2)oc2c1ccc1ccccc12 [CMS-02P, reference compound] |  | 80 nM | ≤ 100 nM | no | yes | 0.18 | 86% | ~40 fold
Cc1cc2oc(-c3ccc(O)cc3O)c(O)c(=O)c2cc1C [CMS-093, 2-(2,4-dihydroxyphenyl)-3-hydroxy-6,7-dimethyl-4H-chromen-4-one] |  | > 500 nM |  | no | no | 1.56 |  | 
COc1cc(/C=C/C(=O)c2ccc3ccccc3c2O)ccc1N1CCCC1 [CMS-137, (E)-1-(1-hydroxynaphthalen-2-yl)-3-(3-methoxy-4-(pyrrolidin-1-yl)phenyl)prop-2-en-1-one] |  |  | 85 nM |  |  |  | 75% | 
COc1cc(-c2oc3c(ccc4ccccc43)c(=O)c2O)ccc1N1CCCC1 [CMS-139, 3-hydroxy-2-(3-methoxy-4-(pyrrolidin-1-yl)phenyl)-4H-benzo[h]chromen-4-one] | 50 nM |  | ≤ 100 nM |  |  |  | 92% | 
O=C(/C=C/c1ccc(N2CCCC2)c(O)c1)c1ccc2ccccc2c1O [CMS-138, (E)-3-(3-hydroxy-4-(pyrrolidin-1-yl)phenyl)-1-(1-hydroxynaphthalen-2-yl)prop-2-en-1-one] |  |  | 70 nM |  |  |  | 72% | 
COc1cc(-c2oc3cc(C)c(C)cc3c(=O)c2O)ccc1CCl [CMS-078, 2-(4-(chloromethyl)-3-methoxyphenyl)-3-hydroxy-6,7-dimethyl-4H-chromen-4-one] |  |  | 134 nM |  |  |  |  | 
O=c1cc(-c2ccc(O)c(O)c2)oc2ccccc12 [PM-001] |  |  | 500 nM |  |  |  |  | 6 fold
O=c1cc(-c2ccc(O)c(O)c2)oc2ccc3ccccc3c12 [PM-003] |  |  | 80 nM |  |  |  |  | ~40 fold
CC(C)c1ccc(O)c(C(=O)/C=C/c2ccc(O)c(O)c2)c1 [CMS-129, (E)-3-(3,4-dihydroxyphenyl)-1-(2-hydroxy-5-isopropylphenyl)prop-2-en-1-one] | 80 nM |  | ≤ 100 nM |  |  |  | 81% | 
